Test results reported in patent US8039505B2, “Compounds for modulating T-cells” (University of Utah Research Foundation, priority 2007, dated 2011).
Values joined by “and” are separate entries in the source; they are usually repeats but may differ in a detail not shown here. Identical values can stand only once.

Assay: Pharmacokinetics in male Swiss Albino mouse, intravenous and oral (LC-MS/MS of plasma)
Format: in vivo
Conditions: for Individual plasma concentration: individual mice; for Mean plasma concentration: N = 3
Method: The pharmacokinetics of 1H-indole-3-carbaldehyde quinolin-8-ylhydrazone (Compound C3) was evaluated following intravenous (3 mg/kg) and oral (15 mg/kg) solution administration of 1H-indole-3-carbaldehyde quinolin-8-ylhydrazone in male Swiss Albino mouse. The effect of the Test Item, 1H-indole-3-carbaldehyde quinolin-8-ylhydrazone on complete blood count (CBC) was also evaluated. Pharmacokinetic phase consisted of two groups, Group 1 and Group 2. Animals in Group 1 were given intravenous bolus dose in a vehicle containing 5% N,N-dimethylacetamide, 5% CREMOPHOR™ EL and 90% Dextrose solution (5% w/v) and those in Group 2 were given oral solution dose in a vehicle, the composition of which was same as that of intravenous formulation. In addition, the effect of Test Item on complete blood count was evaluated following intravenous and oral dose administration along with its vehicle controls. A total of four groups were used each with 6 mice.
From the pharmacokinetic group, predose samples were collected from 3 animals in each group. Following dose administration terminal blood samples were collected at each of the following time points (in triplicate): 0.083 (only for intravenous), 0.25, 0.5, 1, 2, 4, 8, 12 and 24 hours. At each time point, approximately 500 μL of whole blood was withdrawn from the retro orbital sinus and collected in labeled tubes containing dipotassium EDTA as anticoagulant (20 μL of 200 mM K2 EDTA solution per mL of blood). Plasma was separated by centrifuging the whole blood at about 2500 g for 10 minutes at 4° C. within 1 h of sample collection. Separated plasma was stored below minus 50° C. until bioanalysis. A sensitive LC-MS/MS method was used for the quantitation of 1H-indole-3-carbaldehyde quinolin-8-ylhydrazone. The lower limit of quantitation was 1.04 ng/mL. For CBC evaluation, approximately 500 μL of blood was collected in labeled tubes containing dipotassium EDTA as anticoagulant (10 […]/mL of blood) after 48 h of dose administration from all animals.
A total of 57 mice were divided into an intravenous dose group of 30 mice (Group 1) and oral dose group of 27 mice (Group 2). Animals in Group 1 received intravenous bolus dose via tail vein at 3 mg/kg and animals in Group 2 received oral solution dose via gavage at 15 mg/kg. Three animals were administered the dose for each time point (intravenous: 10 time points; Oral: 9 time points). Terminal blood samples were collected from each mouse under light ether anesthesia and plasma was separated.
Animals in Group 1 were administered an intravenous bolus dose via the tail vein (dosing volume: 6 mL/kg). Animals in Group 2 received oral dose by gavage with an oral dosing needle (dosing volume: 10 mL/kg). Animals in the CBC evaluation group were treated same as above except the animals in control group received vehicle instead of formulation.
Pharmacokinetic group: Predose samples were collected from 3 animals in each group. Following dose administration terminal blood samples were collected at each of the following time points (in triplicate): 0.083 (only for intravenous), 0.25, 0.5, 1, 2, 4, 8, 12 and 24 hours. For each time point, approximately 500 μL of whole blood was withdrawn from the retro orbital sinus and collected in labeled tubes containing dipotassium EDTA as anticoagulant (20 μL of 200 mM K2 EDTA solution per mL of blood). Plasma was separated by centrifuging the whole blood at about 2500 g for 10 minutes at 4° C. within 1 h of sample collection. Separated plasma was stored below minus 50° C. until bioanalysis.
An LC-MS/MS method was developed and employed for the quantitation of 1H-indole-3-carbaldehyde quinolin-8-ylhydrazone in the mouse plasma samples. The samples were prepared for analysis following liquid-liquid extraction using amodiaquin as internal standard. The lower limit of quantitation was 1.04 ng/mL.
Pharmacokinetic parameters were calculated using non-compartmental analysis tool of WINNONLIN™ Enterprise software (Version 5.1.1). […]

[1] = mouse plasma, IV 3 mg/kg, 0.25 h samples, listed as ICQH, 3 mg/kg
[2] = mouse, intravenous bolus 3 mg/kg, 24 h, BLQ = below LLOQ 1.04 ng/mL
[3] = mouse, oral solution 15 mg/kg, 24 h, BLQ = below LLOQ 1.04 ng/mL

**Q.** For C(=NNc1cccc2cccnc12)c1c[nH]c2ccccc12 [Compound C3, 1H-indole-3-carbaldehyde quinolin-8-ylhydrazone], which “Accepted conc. (repeat analysis)” value [1] is on record?
**A.** 199.60 c ng/mL and 225.35 c ng/mL

**Q.** And the “Initial conc. (repeat analysis)” value [1]?
**A.** 132.16 ng/mL

**Q.** And the “Repeated conc. (repeat analysis)” value [1]?
**A.** 225.35 ng/mL

**Q.** What about the “Clearance as share of liver blood flow” value (mouse, IV 3 mg/kg) of the same compound?
**A.** about 60 % of liver blood flow

**Q.** And the Volume of distribution (mouse, IV 3 mg/kg)?
**A.** 4.28 Ukg

**Q.** And the “Volume of distribution relative to total body water” value (mouse, IV 3 mg/kg)?
**A.** about 6 times of total body water

**Q.** What about the “Time till which plasma concentrations were quantifiable” value (mouse, following both intravenous (3 mg/kg) and oral (15 mg/kg) administration) of the same compound?
**A.** 12 h

**Q.** And the Individual plasma concentration (mouse, intravenous bolus 3 mg/kg, 0.083 h, LLOQ 1.04 ng/mL, 3 mg/kg)?
**A.** 2253.61 ng/mL and 1125.73 ng/mL and 75.62 b ng/mL

**Q.** And the Individual plasma concentration (mouse, intravenous bolus 3 mg/kg, 0.083 h, LLOQ 1.04 ng/mL, listed as ICQH, 3 mg/kg)?
**A.** 2253.61 ng/mL and 1125.73 ng/mL and 75.62 ng/mL

**Q.** And the Individual plasma concentration (mouse, intravenous bolus 3 mg/kg, 0.25 h, LLOQ 1.04 ng/mL, 3 mg/kg)?
**A.** 307.05 ng/mL and 225.35 ng/mL

**Q.** And the Individual plasma concentration (mouse, intravenous bolus 3 mg/kg, 0.25 h, LLOQ 1.04 ng/mL, listed as ICQH, 3 mg/kg)?
**A.** 199.60 ng/mL and 307.05 ng/mL and 225.35 ng/mL

**Q.** What about the Individual plasma concentration (mouse, intravenous bolus 3 mg/kg, 0.5 h, LLOQ 1.04 ng/mL, 3 mg/kg) of the same compound?
**A.** 388.25 ng/mL and 148.82 ng/mL and 339.56 ng/mL

**Q.** What about the Individual plasma concentration (mouse, intravenous bolus 3 mg/kg, 0.5 h, LLOQ 1.04 ng/mL, listed as ICQH, 3 mg/kg) of the same compound?
**A.** 388.25 ng/mL and 148.82 ng/mL and 339.56 ng/mL

**Q.** What about the Individual plasma concentration (mouse, intravenous bolus 3 mg/kg, 1 h, LLOQ 1.04 ng/mL, 3 mg/kg) of the same compound?
**A.** 184.80 ng/mL and 140.18 ng/mL

**Q.** What about the Individual plasma concentration (mouse, intravenous bolus 3 mg/kg, 1 h, LLOQ 1.04 ng/mL, listed as ICQH, 3 mg/kg) of the same compound?
**A.** 184.80 ng/mL and 116.46 ng/mL and 140.18 ng/mL

**Q.** And the Individual plasma concentration (mouse, intravenous bolus 3 mg/kg, 2 h, LLOQ 1.04 ng/mL, 3 mg/kg)?
**A.** 76.60 ng/mL and 47.02 ng/mL

**Q.** And the Individual plasma concentration (mouse, intravenous bolus 3 mg/kg, 2 h, LLOQ 1.04 ng/mL, listed as ICQH, 3 mg/kg)?
**A.** 71.88 ng/mL and 76.60 ng/mL and 47.02 ng/mL

**Q.** What about the Individual plasma concentration (mouse, intravenous bolus 3 mg/kg, 4 h, LLOQ 1.04 ng/mL, 3 mg/kg) of the same compound?
**A.** 27.25 ng/mL and 38.13 ng/mL

**Q.** What about the Individual plasma concentration (mouse, intravenous bolus 3 mg/kg, 4 h, LLOQ 1.04 ng/mL, listed as ICQH, 3 mg/kg) of the same compound?
**A.** 42.37 ng/mL and 27.25 ng/mL and 38.13 ng/mL

**Q.** And the Individual plasma concentration (mouse, intravenous bolus 3 mg/kg, 8 h, LLOQ 1.04 ng/mL, 3 mg/kg)?
**A.** 5.65 ng/mL and 11.10 ng/mL

**Q.** And the Individual plasma concentration (mouse, intravenous bolus 3 mg/kg, 8 h, LLOQ 1.04 ng/mL, listed as ICQH, 3 mg/kg)?
**A.** 10.11 ng/mL and 5.65 ng/mL and 11.10 ng/mL

**Q.** And the Individual plasma concentration (mouse, intravenous bolus 3 mg/kg, 12 h, BLQ = below LLOQ 1.04 ng/mL, 3 mg/kg)?
**A.** 2.20 ng/mL and BLQ

**Q.** What about the Individual plasma concentration (mouse, intravenous bolus 3 mg/kg, 12 h, BLQ = below LLOQ 1.04 ng/mL, listed as ICQH, 3 mg/kg) of the same compound?
**A.** 1.68 ng/mL and 2.20 ng/mL and BLQ

**Q.** And the Mean plasma concentration [2]?
**A.** BLQ

**Q.** What about the Individual plasma concentration [2] of the same compound?
**A.** BLQ

**Q.** And the “Time of maximum concentration post-dose” value (mouse, oral solution 15 mg/kg)?
**A.** 1.0 h

**Q.** What about the Individual plasma concentration (mouse, oral solution 15 mg/kg, 0.25 h, LLOQ 1.04 ng/mL) of the same compound?
**A.** 53.05 ng/mL and 113.38 ng/mL and 254.20 ng/mL

**Q.** And the Individual plasma concentration (mouse, oral solution 15 mg/kg, 0.25 h, LLOQ 1.04 ng/mL, listed as ICQH)?
**A.** 53.05 ng/mL and 113.38 ng/mL and 254.20 ng/mL

**Q.** What about the Individual plasma concentration (mouse, oral solution 15 mg/kg, 0.5 h, LLOQ 1.04 ng/mL) of the same compound?
**A.** 96.22 ng/mL and 72.56 ng/mL and 273.76 ng/mL

**Q.** What about the Individual plasma concentration (mouse, oral solution 15 mg/kg, 0.5 h, LLOQ 1.04 ng/mL, listed as ICQH) of the same compound?
**A.** 96.22 ng/mL and 72.56 ng/mL and 273.76 ng/mL

**Q.** What about the Individual plasma concentration (mouse, oral solution 15 mg/kg, 1 h, LLOQ 1.04 ng/mL) of the same compound?
**A.** 143.63 ng/mL and 32.21 ng/mL and 422.48 ng/mL

**Q.** And the Individual plasma concentration (mouse, oral solution 15 mg/kg, 1 h, LLOQ 1.04 ng/mL, listed as ICQH)?
**A.** 143.63 ng/mL and 32.21 ng/mL and 422.48 ng/mL

**Q.** What about the Individual plasma concentration (mouse, oral solution 15 mg/kg, 2 h, LLOQ 1.04 ng/mL) of the same compound?
**A.** 51.85 ng/mL and 95.13 ng/mL and 142.67 ng/mL

**Q.** And the Individual plasma concentration (mouse, oral solution 15 mg/kg, 2 h, LLOQ 1.04 ng/mL, listed as ICQH)?
**A.** 51.85 ng/mL and 95.13 ng/mL and 142.67 ng/mL

**Q.** What about the Individual plasma concentration (mouse, oral solution 15 mg/kg, 4 h, LLOQ 1.04 ng/mL) of the same compound?
**A.** 185.50 ng/mL and 87.82 ng/mL and 164.88 ng/mL

**Q.** What about the Individual plasma concentration (mouse, oral solution 15 mg/kg, 4 h, LLOQ 1.04 ng/mL, listed as ICQH) of the same compound?
**A.** 185.50 ng/mL and 87.82 ng/mL and 164.88 ng/mL

**Q.** What about the Individual plasma concentration (mouse, oral solution 15 mg/kg, 8 h, LLOQ 1.04 ng/mL) of the same compound?
**A.** 71.29 ng/mL and 78.06 ng/mL

**Q.** What about the Individual plasma concentration (mouse, oral solution 15 mg/kg, 8 h, LLOQ 1.04 ng/mL, listed as ICQH) of the same compound?
**A.** 76.65 ng/mL and 71.29 ng/mL and 78.06 ng/mL

**Q.** And the Individual plasma concentration (mouse, oral solution 15 mg/kg, 12 h, LLOQ 1.04 ng/mL)?
**A.** 4.05 ng/mL and 11.47 ng/mL and 11.21 ng/mL

**Q.** What about the Individual plasma concentration (mouse, oral solution 15 mg/kg, 12 h, LLOQ 1.04 ng/mL, listed as ICQH) of the same compound?
**A.** 4.05 ng/mL and 11.47 ng/mL and 11.21 ng/mL

**Q.** And the Mean plasma concentration [3]?
**A.** BLQ

**Q.** What about the Individual plasma concentration [3] of the same compound?
**A.** BLQ
